pIC50: −log10 of the molar value.
How the values were obtained:
[1] = test system: tau tangles/Aβ plaques on AD brain sections; assay: Direct staining of human Alzheimer's disease brain sections (Assay 1, fluorescence based assay); format: binding; parameters: key to Direct staining of tau tangles/Aβ plaques on AD brain sections at 100 µM: - (No); +++ (strong); ++ (good); + (weak); details: for Direct staining of tau tangles/Aβ plaques on AD brain sections at 100 µM: 100 µM in 50% ethanol in water, 20 min, room temperature, frozen amygdala sections, Braak stage V-VI; for Direct staining of tau tangles/Aβ plaques on AD brain sections at 100 µM: structure stained: structure (tangles or plaques) that was stained
Procedure: Assay 1 (Fluorescence based assay):
Direct binding of compounds of this invention to human Alzheimer's disease brain sections
Frozen sections with a thickness of […] from the amygdala of donors diagnosed with Braak stage V-VI Alzheimer's Disease (Braak, H.; Braak, E. Acta Neuropathol., 1991, 82, 239-259), were purchased from a commercial provider (Tissue Solutions) and kept at -80°C until use.
Direct staining of human Alzheimer's disease brain sections
Brain sections were encircled with pap pen liquid blocker to reduce the volume of solution for the different incubations. Sections were fixed for 15 min at 4°C with 4% paraformaldehyde and washed three times 5 minutes with PBS at room temperature. Test compounds were incubated on the sections at 100 µM in 50% ethanol in water for 20 min at room temperature in the dark and then washed three times 5 minutes with PBS. To reduce the auto-fluorescence of the tissue, the sections were incubated in a solution of 0.1% Sudan Black (Sigma 199664) in 70% ethanol for 15 min at room temperature in the dark, washed four times for 5 minutes with PBS, and mounted using ProLong Gold Antifade reagent (Invitrogen P36930). Sections were then analyzed on the Nikon Eclipse Ti microscope to detect staining and imaged using Nikon DS-Fi2 camera and NIS-Element AR4.13.1 software.

[2] = target: T1, MAO-A human - recombinant (Homo sapiens, UniProt P21397); assay: Monoamine oxidase A (MAO-A) assay (MAO-Glo Assay); format: biochemical; details: MAO substrate 40 µM; 1 hour at room temperature; read-out: MAO A binding
T1 construct: purchased Sigma-Aldrich M7316
T1 sequence (P21397 1-527): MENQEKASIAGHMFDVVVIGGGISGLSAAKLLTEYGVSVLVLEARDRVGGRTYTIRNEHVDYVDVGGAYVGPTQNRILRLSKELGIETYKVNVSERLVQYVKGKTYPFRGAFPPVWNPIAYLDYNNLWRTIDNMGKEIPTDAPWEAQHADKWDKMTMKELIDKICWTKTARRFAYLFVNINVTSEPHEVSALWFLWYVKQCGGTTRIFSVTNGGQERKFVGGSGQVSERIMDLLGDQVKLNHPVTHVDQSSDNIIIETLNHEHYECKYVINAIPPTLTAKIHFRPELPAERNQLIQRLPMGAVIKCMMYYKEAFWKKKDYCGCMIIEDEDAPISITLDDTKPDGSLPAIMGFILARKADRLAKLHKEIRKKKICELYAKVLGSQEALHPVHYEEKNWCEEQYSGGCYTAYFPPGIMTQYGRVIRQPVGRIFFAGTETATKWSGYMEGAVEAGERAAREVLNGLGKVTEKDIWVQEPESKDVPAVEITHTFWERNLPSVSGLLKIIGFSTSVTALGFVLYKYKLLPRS
Procedure: Monoamine oxidase A (MAO-A) assay
Compounds were tested for their capacity to modulate MAO-A activity within the MAO-Glo™ Assay (Promega, Cat.# V1402). In each well of a 96-well plate, 12.5 µl of 4X MAO Substrate solution (end-concentration in assay: 40 µM) were mixed with 12.5 µl of a 4X solution of the corresponding test compound (end-concentrations ranged from 10 µM to 1.37 nM). In the absence of a test compound (i.e. to gauge the total MAO-A activity), the corresponding volume of MAO Reaction Buffer (100 mM HEPES (pH 7.5), 5% glycerol) was added. To initiate the MAO reaction, 25 µl of 2X MAO-A enzyme solution (MAO-A human - recombinant, Sigma-Aldrich, Cat.# M7316; 1 µg MAO-A enzyme/25 µl MAO Reaction Buffer) were added per well and mixed briefly. For negative control reactions, 25µl of MAO Reaction Buffer were added. Thereafter the plate was incubated at room temperature for 1 hour, following which, 50 µl of reconstituted Luciferin Detection Reagent were added per well and mixed briefly. The plate was then incubated at room temperature for 20 minutes to generate and stabilize the luminescent signal. The luminescent signal was subsequently measured and recorded on the TopCountNXT™ luminescence counter (PerkinElmer). Data were analyzed and graphs were prepared using the Graphpad Prism 6 software.

[3] = target: T2, MAO-B human - recombinant (Homo sapiens, UniProt P27338); assay: MAO-B assay (MAO-Glo Assay); format: biochemical; details: MAO substrate 4 µM; 1 hour at room temperature; read-out: MAO B binding
T2 construct: purchased Sigma-Aldrich M7441
T2 sequence (P27338 1-520): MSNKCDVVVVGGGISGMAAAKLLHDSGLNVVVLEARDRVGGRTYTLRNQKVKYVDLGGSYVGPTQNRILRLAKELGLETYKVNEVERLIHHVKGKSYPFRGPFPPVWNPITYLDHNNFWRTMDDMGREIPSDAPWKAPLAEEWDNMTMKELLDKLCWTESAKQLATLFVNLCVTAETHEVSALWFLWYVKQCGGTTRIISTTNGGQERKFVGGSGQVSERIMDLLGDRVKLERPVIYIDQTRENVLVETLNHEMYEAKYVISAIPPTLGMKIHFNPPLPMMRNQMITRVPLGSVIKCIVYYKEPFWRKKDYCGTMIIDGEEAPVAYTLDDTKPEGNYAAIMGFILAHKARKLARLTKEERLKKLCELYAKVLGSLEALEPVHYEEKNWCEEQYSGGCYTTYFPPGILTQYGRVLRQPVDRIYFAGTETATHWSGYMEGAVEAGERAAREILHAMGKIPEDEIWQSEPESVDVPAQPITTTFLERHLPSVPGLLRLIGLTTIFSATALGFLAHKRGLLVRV
Procedure: Compounds were tested for their capacity to modulate MAO-B activity within the MAO-Glo™ Assay (Promega, Cat.# V1402). In each well of a 96-well plate, 12.5 µl of 4X MAO Substrate solution (end-concentration in assay: 4 µM) were mixed with 12.5 µl of a 4X solution of the corresponding test compound (end-concentrations ranged from 10 µM to 1.37 nM). In the absence of a test compound (i.e. to gauge the total MAO-B activity), the corresponding volume of MAO-B Reaction Buffer (100 mM HEPES (pH 7.5), 5% glycerol, 10% dimethyl sulphoxide) was added. To initiate the MAO reaction, 25 µl of 2X MAO-B enzyme solution (MAO-B human - recombinant, Sigma-Aldrich, Cat.# M7441; 1 µg MAO-B enzyme/25 µl MAO-B Reaction Buffer) were added per well and mixed briefly. For negative control reactions, 25µl of MAO-B Reaction Buffer were added. Thereafter the plate was incubated at room temperature for 1 hour, following which, 50 µl of reconstituted Luciferin Detection Reagent were added per well and mixed briefly. The plate was then incubated at room temperature for 20 minutes to generate and stabilize the luminescent signal. The luminescent signal was subsequently measured and recorded on the TopCountNXT™ luminescence counter (PerkinElmer). Data were analyzed and graphs were prepared using the Graphpad Prism 6 software.

Structure (SMILES)	Direct staining of tau tangles/Aβ plaques on AD brain sections at 100 µM [1]	Direct staining of tau tangles/Aβ plaques on AD brain sections at 100 µM: structure stained [1]	pIC50 [2]	pIC50 [3]
Cn1c2ccncc2c2ccc(N3CC4CC(C3)C4OCCF)nc21 (stereo not drawn) [Example 13]	++	(tangles)		
CN(CCF)C1CCN(c2ccc3c4cnccc4n(C)c3n2)CC1 [Example 3]	-			
Cn1c2ccncc2c2ccc(N3CCC(COCCF)CC3)nc21 [Example 14]	-			
OC(CF)COC1CCN(c2ccc3c(n2)[nH]c2ccncc23)CC1 (stereo not drawn) [Example 10]			6.10	< 6.00
Cn1c2ccncc2c2ccc(N3CCOC(CCF)C3)nc21 (stereo not drawn) [Example 16]	-			
CCn1c2ccncc2c2ccc(N3CCC(OCCF)CC3)nc21 [Example 1]	-			
Cn1c2ccncc2c2ccc(N3CCN(CC(O)CF)CC3)nc21 (stereo not drawn) [Example 12]	+	(tangles)	6.03	< 6.00
Cn1c2ccncc2c2ccc(N3CCC(OCC(O)CF)CC3)nc21 (stereo not drawn) [Example 5]	++	(tangles)	6.37	< 6.00
CCn1c2ccncc2c2ccc(N3CCC(OCC(O)CF)CC3)nc21 (stereo not drawn) [Example 6]	++	(tangles)		
